# Patent US20250382332A1, “NOVEL ALPHA-FACTOR BASED PEPTIDES WITH ANTIFUNGAL ACTIVITY” (INVAIO SCIENCES, INC., priority 2024, published 2025)
# Peptide text beside a SMILES is read from it.
# System: Botrytis cinerea (B05.10)
# Assay: Resazurin antifungal assay of 180 alpha-factor peptide variants towards Botrytis (Example 2)
# Assay type: cell-based
# Settings: % inhibition of fungal growth, Botrytis conidia, resazurin; for Inhibition at 50 μM: peptide 50 μM; for Inhibition at 100 μM: peptide 100 μM
# Method in brief: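 B. cinerea B05.10 conidia (5000/well) were exposed to peptides at 100, 50, 20, 15 and 10 μM final for 24 h at 20° C. Resazurin was then added and fluorescence read at 570/620 nm. Percent growth inhibition was calculated against conidia-only wells, with four technical replicates.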
Structure (SMILES),Inhibition at 50 μM [%],Inhibition at 100 μM [%]
CC[C@H](C)[C@H](NC(=O)[C@H](Cc1ccccc1)NC(=O)[C@H](CS)NC(=O)[C@@H](N)CCCCN)C(=O)N[C@@H](CCC(N)=O)C(=O)N[C@@H](CC(C)C)C(=O)N[C@@H](CCCCN)C(=O)N1CCC[C@H]1C(=O)NCC(=O)N[C@@H](CCC(N)=O)C(=O)N1CCC[C@H]1C(=O)N[C@@H](CCSC)C(=O)N[C@@H](Cc1ccc(O)cc1)C(=O)O [compound 140] (H-KCFIQLKPGQPMY-OH; N-terminus and C-terminus assumed),<90,90.65
CSCC[C@H](NC(=O)[C@@H]1CCCN1C(=O)[C@H](CCC(N)=O)NC(=O)CNC(=O)[C@H](CCCNC(=N)N)NC(=O)[C@H](CCCCN)NC(=O)[C@H](CC(C)C)NC(=O)[C@@H](NC(=O)[C@H](CC(C)C)NC(=O)[C@H](CC(=O)O)NC(=O)[C@H](CCCNC(=N)N)NC(=O)[C@@H]1CCCN1)[C@@H](C)O)C(=O)N[C@@H](Cc1ccc(O)cc1)C(=O)O [compound 141] (H-PRDLTLKRGQPMY-OH; N-terminus and C-terminus assumed),<90,<90
CC[C@H](C)[C@H](NC(=O)[C@H](CO)NC(=O)[C@H](CC(C)C)NC(=O)CNC(=O)[C@H](Cc1c[nH]cn1)NC(=O)[C@@H]1CCCN1)C(=O)N[C@@H](Cc1ccc(O)cc1)C(=O)N1CCC[C@H]1C(=O)NCC(=O)N[C@@H](CCC(N)=O)C(=O)N1CCC[C@H]1C(=O)N[C@@H](CCSC)C(=O)N[C@@H](Cc1ccc(O)cc1)C(=O)O [compound 142] (H-PHGLSIYPGQPMY-OH; N-terminus and C-terminus assumed),<90,<90
CSCC[C@H](NC(=O)[C@@H]1CCCN1C(=O)[C@H](CCC(N)=O)NC(=O)CNC(=O)[C@@H]1CCCN1C(=O)[C@H](CCCCN)NC(=O)[C@H](CC(C)C)NC(=O)[C@H](CCC(=O)O)NC(=O)CNC(=O)[C@H](Cc1c[nH]c2ccccc12)NC(=O)[C@H](Cc1c[nH]cn1)NC(=O)[C@@H]1CCCN1)C(=O)N[C@@H](Cc1ccc(O)cc1)C(=O)O [compound 143] (H-PHWGELKPGQPMY-OH; N-terminus and C-terminus assumed),<90,<90
CSCC[C@H](NC(=O)[C@@H]1CCCN1C(=O)[C@H](CCC(N)=O)NC(=O)CNC(=O)[C@@H]1CCCN1C(=O)[C@H](Cc1ccccc1)NC(=O)[C@H](CC(C)C)NC(=O)[C@H](CCC(N)=O)NC(=O)[C@@H](NC(=O)[C@H](Cc1c[nH]c2ccccc12)NC(=O)[C@H](Cc1c[nH]cn1)NC(=O)[C@@H](N)CCCCN)C(C)C)C(=O)N[C@@H](Cc1ccc(O)cc1)C(=O)O [compound 144] (H-KHWVQLFPGQPMY-OH; N-terminus and C-terminus assumed),<90,99.99
CSCC[C@H](NC(=O)[C@@H]1CCCN1C(=O)[C@H](CCC(N)=O)NC(=O)CNC(=O)[C@H](CC(N)=O)NC(=O)[C@H](CCCCN)NC(=O)[C@H](Cc1ccccc1)NC(=O)[C@H](CC(N)=O)NC(=O)[C@H](CC(C)C)NC(=O)[C@H](Cc1c[nH]c2ccccc12)NC(=O)[C@H](CCC(=O)O)NC(=O)[C@@H](N)CCCCN)C(=O)N[C@@H](Cc1ccc(O)cc1)C(=O)O [compound 145] (H-KEWLNFKNGQPMY-OH; N-terminus and C-terminus assumed),<90,<90
CSCC[C@H](NC(=O)[C@@H]1CCCN1C(=O)[C@H](CCC(N)=O)NC(=O)CNC(=O)[C@@H]1CCCN1C(=O)[C@H](Cc1c[nH]c2ccccc12)NC(=O)[C@H](Cc1ccccc1)NC(=O)[C@H](CCC(N)=O)NC(=O)CNC(=O)[C@@H](NC(=O)[C@H](CCCNC(=N)N)NC(=O)[C@@H](N)Cc1c[nH]c2ccccc12)[C@@H](C)O)C(=O)N[C@@H](Cc1ccc(O)cc1)C(=O)O [compound 146] (H-WRTGQFWPGQPMY-OH; N-terminus and C-terminus assumed),<90,<90
CSCC[C@H](NC(=O)[C@@H]1CCCN1C(=O)[C@H](CCC(N)=O)NC(=O)CNC(=O)[C@H](CCCNC(=N)N)NC(=O)[C@H](CCCCN)NC(=O)[C@H](CC(C)C)NC(=O)[C@H](CCC(N)=O)NC(=O)CNC(=O)[C@H](CC(=O)O)NC(=O)[C@H](Cc1c[nH]cn1)NC(=O)[C@@H]1CCCN1)C(=O)N[C@@H](Cc1ccc(O)cc1)C(=O)O [compound 147] (H-PHDGQLKRGQPMY-OH; N-terminus and C-terminus assumed),<90,<90
CSCC[C@H](NC(=O)[C@@H]1CCCN1C(=O)[C@H](CCC(=O)O)NC(=O)CNC(=O)[C@@H]1CCCN1C(=O)[C@H](CCCCN)NC(=O)[C@H](CC(C)C)NC(=O)[C@H](CC(N)=O)NC(=O)[C@H](CC(C)C)NC(=O)[C@H](Cc1c[nH]c2ccccc12)NC(=O)[C@H](CCCCN)NC(=O)[C@@H]1CCCN1)C(=O)N[C@@H](Cc1ccc(O)cc1)C(=O)O [compound 148] (H-PKWLNLKPGEPMY-OH; N-terminus and C-terminus assumed),<90,<90
CSCC[C@H](NC(=O)[C@@H]1CCCN1C(=O)[C@H](CCC(N)=O)NC(=O)CNC(=O)[C@@H]1CCCN1C(=O)[C@H](CCSC)NC(=O)[C@H](CC(C)C)NC(=O)[C@H](CCCCN)NC(=O)[C@H](CC(C)C)NC(=O)[C@@H](NC(=O)[C@H](CCCNC(=N)N)NC(=O)[C@@H](N)Cc1c[nH]c2ccccc12)C(C)C)C(=O)N[C@@H](Cc1ccc(O)cc1)C(=O)O [compound 149] (H-WRVLKLMPGQPMY-OH; N-terminus and C-terminus assumed),<90,<90
CC[C@H](C)[C@H](NC(=O)[C@H](CCC(N)=O)NC(=O)[C@H](CC(C)C)NC(=O)[C@H](Cc1ccccc1)NC(=O)[C@H](Cc1c[nH]cn1)NC(=O)[C@@H](N)Cc1c[nH]c2ccccc12)C(=O)N[C@@H](CCCCN)C(=O)N1CCC[C@H]1C(=O)NCC(=O)N[C@@H](CCC(=O)O)C(=O)N1CCC[C@H]1C(=O)N[C@@H](CCSC)C(=O)N[C@@H](Cc1ccc(O)cc1)C(=O)O [compound 150] (H-WHFLQIKPGEPMY-OH; N-terminus and C-terminus assumed),<90,<90
CSCC[C@H](NC(=O)[C@@H]1CCCN1C(=O)[C@H](CCC(N)=O)NC(=O)CNC(=O)[C@@H]1CCCN1C(=O)[C@H](CCCCN)NC(=O)[C@H](CC(C)C)NC(=O)[C@H](CC(N)=O)NC(=O)[C@H](CC(C)C)NC(=O)[C@H](Cc1c[nH]c2ccccc12)NC(=O)[C@H](CCC(=O)O)NC(=O)[C@@H](N)CCCCN)C(=O)N[C@@H](Cc1ccc(O)cc1)C(=O)O [compound 151] (H-KEWLNLKPGQPMY-OH; N-terminus and C-terminus assumed),<90,<90
CC[C@H](C)[C@H](NC(=O)[C@H](CCC(N)=O)NC(=O)[C@H](CC(C)C)NC(=O)[C@H](Cc1c[nH]c2ccccc12)NC(=O)[C@H](CO)NC(=O)[C@@H](N)CCCCN)C(=O)N[C@@H](CCCCN)C(=O)N[C@@H](CC(N)=O)C(=O)NCC(=O)N[C@@H](CCC(N)=O)C(=O)N1CCC[C@H]1C(=O)N[C@@H](CCSC)C(=O)N[C@@H](Cc1ccc(O)cc1)C(=O)O [compound 152] (H-KSWLQIKNGQPMY-OH; N-terminus and C-terminus assumed),<90,<90
CC[C@H](C)[C@H](NC(=O)CNC(=O)[C@@H](N)CCCCN)C(=O)N[C@@H](CC(C)C)C(=O)N[C@H](C(=O)N[C@@H](CC(C)C)C(=O)N[C@@H](CCCCN)C(=O)N1CCC[C@H]1C(=O)NCC(=O)N[C@@H](CCC(N)=O)C(=O)N1CCC[C@H]1C(=O)N[C@@H](CCSC)C(=O)N[C@@H](Cc1ccc(O)cc1)C(=O)O)[C@@H](C)O [compound 153] (H-KGILTLKPGQPMY-OH; N-terminus and C-terminus assumed),<90,<90
CSCC[C@H](NC(=O)[C@@H]1CCCN1C(=O)[C@H](CO)NC(=O)CNC(=O)[C@@H]1CCCN1C(=O)[C@H](CCCCN)NC(=O)[C@H](CC(C)C)NC(=O)[C@H](C)NC(=O)[C@H](CC(C)C)NC(=O)[C@@H](NC(=O)[C@H](Cc1c[nH]cn1)NC(=O)[C@@H](N)CCCCN)C(C)C)C(=O)N[C@@H](Cc1ccc(O)cc1)C(=O)O [compound 154] (H-KHVLALKPGSPMY-OH; N-terminus and C-terminus assumed),<90,<90
CC[C@H](C)[C@H](NC(=O)[C@H](CCCCN)NC(=O)[C@@H](N)Cc1c[nH]c2ccccc12)C(=O)N[C@@H](CC(C)C)C(=O)N[C@H](C(=O)N[C@H](C(=O)N[C@@H](CCCCN)C(=O)N1CCC[C@H]1C(=O)NCC(=O)N[C@@H](CCC(N)=O)C(=O)N1CCC[C@H]1C(=O)N[C@@H](CCSC)C(=O)N[C@@H](Cc1ccc(O)cc1)C(=O)O)[C@@H](C)CC)[C@@H](C)O [compound 155] (H-WKILTIKPGQPMY-OH; N-terminus and C-terminus assumed),<90,<90
CSCC[C@H](NC(=O)[C@@H]1CCCN1C(=O)[C@H](CO)NC(=O)CNC(=O)[C@H](CC(N)=O)NC(=O)[C@H](CCCCN)NC(=O)[C@H](CC(C)C)NC(=O)[C@H](CCC(N)=O)NC(=O)[C@@H](NC(=O)[C@H](CC(=O)O)NC(=O)[C@H](Cc1c[nH]cn1)NC(=O)[C@@H](N)CCCCN)C(C)C)C(=O)N[C@@H](Cc1ccc(O)cc1)C(=O)O [compound 156] (H-KHDVQLKNGSPMY-OH; N-terminus and C-terminus assumed),<90,<90
CSCC[C@H](NC(=O)[C@@H]1CCCN1C(=O)[C@H](CCC(N)=O)NC(=O)CNC(=O)[C@@H](NC(=O)[C@H](CCC(N)=O)NC(=O)[C@H](Cc1ccccc1)NC(=O)[C@H](CC(N)=O)NC(=O)CNC(=O)[C@H](Cc1c[nH]c2ccccc12)NC(=O)[C@H](Cc1c[nH]cn1)NC(=O)[C@@H](N)Cc1c[nH]c2ccccc12)[C@@H](C)O)C(=O)N[C@@H](Cc1ccc(O)cc1)C(=O)O [compound 157] (H-WHWGNFQTGQPMY-OH; N-terminus and C-terminus assumed),<90,97.14
